This note sets out measurements from EP4227307A1 (Genzyme Corporation, priority 2022, dated 2023).

Where a name gives a salt, the structure may show the parent alone.

The experiment has as its target T1, human recombinant 6His-Nterm SHP2 full-length (Thr2-Arg593) (Homo sapiens, UniProt Q06124).
T1 construct: 6His-Nterm SHP2 full-length (Thr2-Arg593, R&D system); 6His (N); purchased R&D system
T1 sequence (Q06124 2-593): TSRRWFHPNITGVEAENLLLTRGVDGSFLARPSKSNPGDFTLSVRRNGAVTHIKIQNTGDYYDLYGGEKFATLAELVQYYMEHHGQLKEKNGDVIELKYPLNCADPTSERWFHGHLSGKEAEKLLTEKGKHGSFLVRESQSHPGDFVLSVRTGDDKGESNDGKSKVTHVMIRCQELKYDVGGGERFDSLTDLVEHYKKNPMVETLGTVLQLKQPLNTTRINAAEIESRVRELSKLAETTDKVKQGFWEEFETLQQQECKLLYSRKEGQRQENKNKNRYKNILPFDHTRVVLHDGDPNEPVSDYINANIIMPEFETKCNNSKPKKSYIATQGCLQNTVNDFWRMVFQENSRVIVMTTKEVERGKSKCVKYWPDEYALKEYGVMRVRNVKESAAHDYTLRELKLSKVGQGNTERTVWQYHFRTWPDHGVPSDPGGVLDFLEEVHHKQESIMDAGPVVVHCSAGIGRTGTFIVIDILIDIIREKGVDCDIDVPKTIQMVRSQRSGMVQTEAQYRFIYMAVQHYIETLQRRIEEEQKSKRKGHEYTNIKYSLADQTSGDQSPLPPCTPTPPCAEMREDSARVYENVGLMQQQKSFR
The experiment can be described thus: SHP2 Phosphatase Assay (DiFMUP fluorescence). The class given is biochemical. Conditions: SHP2 0.2 nM pre-incubated with 100 nM bi-phosphorylated activating peptide; compound 1000-0.05 nM, 30 min pre-incubation; DiFMUP 20 µM, 45 min, room temperature; 10-concentration dose-response. The procedure, abridged: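 SHP2 (0.2 nM) preactivated ≥10 min with 100 nM bis-phosphorylated peptide, then 30 min with compound (10 concentrations, 1000–0.05 nM) at room temperature, pH 7.2 HEPES buffer with DTT. DiFMUP (20 µM, added solution) reacted 45 min, pervanadate-stopped; fluorescence 350/450 nm. IC50 by 4-parameter logistic fit.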
In general, IC50 refers to the point on the concentration scale where inhibition reaches its midpoint. In the case of `Cc1nc(N2CCC3(CC2)Cc2ncccc2[C@H]3N)c2ccnn2c1-c1cc(C(F)(F)F)nn1C` [Compound 163, (5S)-1'-[6-methyl-7-[2-methyl-5-(trifluoromethyl)pyrazol-3-yl]pyrazolo[1,5-a]pyrazin-4-yl]spiro[5,7-dihydrocyclopenta[b]pyridine-6,4'-piperidine]-5-amine], the IC50 is 30 nM. The result for `Cc1nc(N2CCC3(CC2)Cc2ncccc2[C@H]3N)c2ccnn2c1-c1cccn(C)c1=O` [Compound 227, 3-[4-[(5S)-5-aminospiro[5,7-dihydrocyclopenta[b]pyridine-6,4'-piperidine]-1'-yl]-6-methyl-pyrazolo[1,5-a]pyrazin-7-yl]-1-methyl-pyridin-2-one] reads above 1000 nM. Then `Cc1nc(N2CCC3(CC2)Cc2ncccc2[C@H]3N)c2ccnn2c1-c1ccc2ncccc2c1` [Compound 202, (5S)-1'-[6-methyl-7-(6-quinolyl)pyrazolo[1,5-a]pyrazin-4-yl]spiro[5,7-dihydrocyclopenta[b]pyridine-6,4'-piperidine]-5-amine], with 26 nM; and `[2H]c1c([2H])c([2H])c(-c2c(C)nc(N3CCC4(CC3)Cc3ncccc3[C@H]4N)c3ccnn23)c([2H])c1[2H]` [Compound 57, (5S)-1'-[6-methyl-7-(2,3,4,5,6-pentadeuteriophenyl)pyrazolo [1,5-a]pyrazin-4-yl]spiro[5,7-dihydrocyclopenta[b]pyridine-6,4'-piperidine]-5-amine], with 10 nM; and `Cc1nc(N2CCC3(CC2)Cc2ncccc2[C@H]3N)c2ccnn2c1-c1ccc2c(c1)OCC2` [Compound 162, (5S)-1'-[7-(2,3-dihydrobenzofuran-6-yl)-6-methyl-pyrazolo[1,5-a]pyrazin-4-yl]spiro[5,7-dihydrocyclopenta[b]pyridine-6,4'-piperidine]-5-amine], with 4 nM.

Turning to `Cc1nc(N2CCC3(CC2)Cc2ncccc2[C@H]3N)c2ccnn2c1-c1ccc2nccnc2c1Cl` [Compound 77, (5S)-1'-[7-(5-chloroquinoxalin-6-yl)-6-methyl-pyrazolo[1,5-a]pyrazin-4-yl]spiro[5,7-dihydrocyclopenta[b]pyridine-6,4'-piperidine]-5-amine], the IC50 turned out to be 4 nM. Then `Cc1nc2c(s1)CC1(CCN(c3nc(C)c(-c4ccccc4F)n4nccc34)CC1)[C@@H]2N` [Compound 104, (4S)-1'-[7-(2-fluorophenyl)-6-methyl-pyrazolo[1,5-a]pyrazin-4-yl]-2-methyl-spiro[4,6-dihydrocyclopenta[d]thiazole-5,4'-piperidine]-4-amine hydrochloride], with 9 nM; and `Cc1nc2c(s1)CC1(CCN(c3nc(C)c(-c4ccnc(C)c4Cl)n4nccc34)CC1)[C@@H]2N` [Compound 105, (4S)-1'-[7-(3-chloro-2-methyl-4-pyridyl)-6-methyl-pyrazolo[1,5-a]pyrazin-4-yl]-2-methyl-spiro[4,6-dihydrocyclopenta[d]thiazole-5,4'-piperidine]-4-amine hydrochloride], with 6 nM. The result for `COc1nccc(-c2c(C)nc(N3CCC4(CC3)Cc3ncccc3[C@H]4N)c3ccnn23)c1Cl` [Compound 108, (5S)-1'-[7-(3-chloro-2-methoxy-4-pyridyl)-6-methyl-pyrazolo[1,5-a]pyrazin-4-yl]spiro[5,7-dihydrocyclopenta[b]pyridine-6,4'-piperidine]-5-amine] reads 6 nM; that for `Cc1nccc(-c2c(C)nc(N3CCC4(CC3)Cc3ncccc3[C@H]4N)c3ccnn23)c1Cl` [Compound 45, (5S)-1'-[7-(3-cldoro-2-methyl-4-pyridyl)-6-methyl-pyrazolo[1,5-a]pyrazin-4-yl]spiro[5,7-dihydrocyclopenta[b]pyridine-6,4'-piperidine]-5-amine], 8 nM; that for `Cc1nc(N2CCC3(CC2)Cc2scnc2[C@H]3N)c2ccnn2c1-c1ccccc1` [Compound 68, (4S)-1'-(6-methyl-7-phenyl-pyrazolo[1,5-a]pyrazin-4-yl)spiro[4,6-dihydrocyclopenta[d]thiazole-5,4'-piperidine]-4-amine hydrochloride], 18 nM.

`Cc1nc(N2CCC3(CC2)Cc2ncccc2[C@H]3N)c2ccnn2c1-c1ccnc(C(C)C)c1Cl` [Compound 7, (5S)-1'-[7-(3-chloro-2-isopropyl-4-pyridyl)-6-methyl-pyrazolo[1,5-a]pyrazin-4-yl]spiro[5,7-dihydrocyclopenta[b]pyridine-6,4'-piperidine] -5-amine hydrochloride]: the IC50 was 13 nM. The result for `Cc1nc(N2CCC3(CC2)Cc2ncccc2[C@H]3N)c2ccnn2c1-c1cncnc1` [Compound 165, (5S)-1'-(6-methyl-7-pyrimidin-5-yl-pyrazolo[1,5-a]pyrazin-4-yl)spiro[5,7-dihydrocyclopenta[b]pyridine-6,4'-piperidine]-5-amine] reads 370 nM. On to `COc1ccc2c(c1)[C@@H](N)C1(CCN(c3nc(C)c(-c4cc(C)nn4C)n4nccc34)CC1)C2` [Compound 123, (1S)-1'-[7-(2,5-dimethylpyrazol-3-yl)-6-methyl-pyrazolo[1,5-a]pyrazin-4-yl]-6-methoxy-spiro[indane-2,4'-piperidine]-1-amine hydrochloride], for which the IC50 came to 9 nM.

Consider `Cc1nc(N2CCC3(CC2)Cc2ncccc2[C@H]3N)c2ccnn2c1-c1ccc2nccnc2c1` [Compound 27, (5S)-1'-(6-methyl-7-quinoxalin-6-yl-pyrazolo[1,5-a]pyrazin-4-yl)spiro[5,7-dihydrocyclopenta[b]pyridine-6,4'-piperidine]-5-amine hydrochloride], for which the IC50 was found to be 16 nM. The result for `Cc1nc2c(s1)[C@@H](N)C1(CCN(c3nc(C)c(-c4ccnc(C)c4Cl)n4nccc34)CC1)C2` [Compound 84, (6S)-1'-[7-(3-chloro-2-methyl-4-pyridyl)-6-methyl-pyrazolo[1,5-a]pyrazin-4-yl]-2-methyl-spiro[4,6-dihydrocyclopenta[d]thiazole-5,4'-piperidine]-6-amine hydrochloride] reads 5 nM.

In the case of `Cc1nc(N2CCC3(CC2)Cc2c(F)cc(F)cc2[C@H]3N)c2ccnn2c1-c1cnn(C)c1C` [Compound 102, (1S)-1'-[7-(1,5-dimethylpyrazol-4-yl)-6-methyl-pyrazolo[1,5-a]pyrazin-4-yl]-4,6-difluoro-spiro[indane-2,4'-piperidine]-1-amine hydrochloride], the IC50 was 17 nM.

For the molecule `COc1cccc2c1CC1(CCN(c3nc(C)c(-c4ccnc(C)c4Cl)n4nccc34)CC1)[C@@H]2N` [Compound 110, (1S)-1'-[7-(3-chloro-2-methyl-4-pyridyl)-6-methyl-pyrazolo[1,5-a]pyrazin-4-yl]-4-methoxy-spiro[indane-2,4'-piperidine]-1-amine], the IC50 was determined as 11 nM. Then `COc1ccc2c(n1)[C@H](N)C1(CCN(c3nc(C)c(-c4cccc(F)c4F)n4nccc34)CC1)C2` [Compound 214, (7R)-1'-[7-(2,3-difluorophenyl)-6-methyl-pyrazolo [1,5-a]pyrazin-4-yl]-2-methoxy-spiro[5,7-dihydrocyclopenta[b]pyridine-6,4'-piperidine]-7-amine], with 594 nM.
